From US11655246B2, “Aminothiazole compounds as inhibitors of CTPS1” (STEP PHARMA S.A.S., priority 2017, dated 2023) come the findings set out here.

SMILES strings stand for the structures.

The experiment has as its target T1, human CTPS1 (Homo sapiens, UniProt P17812).
T1 construct: purchased Proteros biostructures GmbH
T1 sequence (P17812 1-591): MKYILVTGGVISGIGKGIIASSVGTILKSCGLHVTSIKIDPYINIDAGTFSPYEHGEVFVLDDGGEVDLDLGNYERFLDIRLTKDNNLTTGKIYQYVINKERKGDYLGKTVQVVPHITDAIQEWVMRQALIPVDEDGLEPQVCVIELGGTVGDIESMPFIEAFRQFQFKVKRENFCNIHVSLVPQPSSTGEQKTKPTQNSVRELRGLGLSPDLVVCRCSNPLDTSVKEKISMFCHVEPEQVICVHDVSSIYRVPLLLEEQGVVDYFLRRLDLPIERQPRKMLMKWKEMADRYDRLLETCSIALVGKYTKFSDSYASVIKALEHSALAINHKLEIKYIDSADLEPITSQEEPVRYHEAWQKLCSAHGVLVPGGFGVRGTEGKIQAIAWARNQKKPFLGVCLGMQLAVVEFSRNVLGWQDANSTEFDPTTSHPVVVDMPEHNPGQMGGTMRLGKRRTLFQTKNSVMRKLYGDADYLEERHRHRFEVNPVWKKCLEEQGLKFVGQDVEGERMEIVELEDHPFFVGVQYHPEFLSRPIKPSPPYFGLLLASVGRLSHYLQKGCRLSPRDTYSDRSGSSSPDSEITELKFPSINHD
In words: Human CTPS1 enzyme inhibition (ADP-Glo Max assay). To be noted: Table 17, 25° C., read-out: CTPS1 (Human CTPS1 Enzyme Inhibition data grouped by potency range). Format: biochemical. How it is done:
The enzyme inhibitory activities of compounds invented against the target of interest were determined using the ADP-Glo™ Max assay (Promega, UK). Assays for human CTPS1 were performed in 1× assay buffer containing 50 mM Tris, 10 mM MgCl2, 0.01% Tween-20, pH to 8.0 accordingly. Finally, immediately before use, L-cysteine was added to the 1× assay buffer to a final concentration of 2 mM. All reagents are from Sigma-Aldrich unless specified otherwise.
3× human CTPS1 protein was prepared in 1× assay buffer to the final working protein concentration required for the reaction. A 2 uL volume per well of 3× human CTPS1 protein was mixed with 2 uL per well of 3× test compound (compound prepared in 1× assay buffer to an appropriate final 3× compound concentration respective to the concentration response curve designed for the compounds under test) for 10 minutes at 25° C. […] ADP-Glo™ Max reagent was added for 60 minutes (6 uL per well) and subsequently ADP-Glo™ Max development reagent was added for 60 minutes (12 uL per well) prior to signal detection in a microplate reader (EnVision® Multilabel Reader, Perkin Elmer). Following each reagent addition over the course of the assay, assay plates were pulse centrifuged for 30 seconds at 500 rpm.
In all cases, the enzyme converts ATP to ADP and the ADP-Glo™ Max reagent subsequently depletes any remaining endogenous ATP in the reaction system. The ADP-Glo™ Max detection reagent converts the ADP that has been enzymatically produced back into ATP and using ATP as a substrate together with luciferin for the enzyme luciferase, light is generated which produces a detectable luminescence. […] The percentage inhibition produced by each concentration of compound was calculated using the equation shown below: […]
For the compound `COc1cncc(-c2ccc(NC(=O)C(C)(C)c3csc(NS(=O)(=O)C4CC4)n3)cc2)c1` [T15, 2-(2-(cyclopropanesulfonamido)thiazol-4-yl)-N-(4-(5-methoxypyridin-3-yl)phenyl)-2-methylpropanamide], the IC50 lay within 100 to 1000 nM.

As to `O=C(Cc1csc(NS(=O)(=O)C2CC2)n1)Nc1ccc(-c2cccnc2)cc1Cl` [T16, N-(2-chloro-4-(pyridin-3-yl)phenyl)-2-(2-(cyclopropanesulfonamido)thiazol-4-yl)acetamide], the IC50 is 100 to 1000 nM.

For `Cc1sc(NS(=O)(=O)C2CC2)nc1C(C)(C)C(=O)Nc1ccc(-c2cncc(C(F)(F)F)n2)cc1` [T17, 2-(2-(cyclopropanesulfonamido)-5-methylthiazol-4-yl)-2-methyl-N-(4-(6-(trifluoromethyl)pyrazin-2-yl)phenyl)propanamide], the IC50 lay in the range of 100 to 1000 nM.

On to `CC(C)(C(=O)Nc1ccc(-c2cncnc2)cc1)c1csc(NS(=O)(=O)C2CC2)n1` [T18, 2-(2-(cyclopropanesulfonamido)thiazol-4-yl)-2-methyl-N-(4-(pyrimidin-5-yl)phenyl)propanamide], for which the IC50 is less than 100 nM.

On to `CN(C)C(=O)c1cncc(-c2ccc(NC(=O)C(C)(C)c3csc(NS(=O)(=O)C4CC4)n3)cc2)n1` [T19, 6-(4-(2-(2-(cyclopropanesulfonamido)thiazol-4-yl)-2-methylpropanamido)phenyl)-N,N-dimethylpyrazine-2-carboxamide], for which the IC50 was 100 to 1000 nM.

For `CC(C)(C(=O)Nc1ncc(-c2cncc(C#N)c2)cn1)c1csc(NS(=O)(=O)C2CC2)n1` [T20, N-(5-(5-cyanopyridin-3-yl)pyrimidin-2-yl)-2-(2-(cyclopropanesulfonamido)thiazol-4-yl)-2-methylpropanamide], the IC50 is 100 to 1000 nM.

On to `O=C(Cc1nc(NS(=O)(=O)C2CC2)sc1Cl)Nc1ccc(-c2ccccc2)cc1` [T21, N-([1,1′-biphenyl]-4-yl)-2-(5-chloro-2-(cyclopropanesulfonamido)thiazol-4-yl)acetamide], for which the IC50 is 1000 to 10000 nM.

For the compound `C#Cc1cncc(-c2ccc(NC(=O)C(CC)c3csc(NS(=O)(=O)C4CC4)n3)cc2)n1` (centres unmarked) [T22, 2-(2-(cyclopropanesulfonamido)thiazol-4-yl)-N-(4-(6-ethynylpyrazin-2-yl)phenyl)butanamide], the IC50 is less than 100 nM.

As to `CC(C(=O)Nc1ccc(-c2cccnc2)nc1)c1csc(NS(=O)(=O)C2CC2)n1` (centres unmarked) [T27], the IC50 is 100 to 1000 nM.

On to `CCC(C(=O)Nc1ccc(-c2cncc(OC)n2)cc1)c1csc(NS(=O)(=O)C2CC2)n1` (centres unmarked) [T33], for which the IC50 was less than 100 nM.

As for `CC(C)(C(=O)Nc1ccc(-c2cnccn2)c(F)c1)c1csc(NS(=O)(=O)C2CC2)n1` [T39], the IC50 fell in the range of 100 to 1000 nM.

As to `CC(C)(C(=O)Nc1ccc(-c2cccnc2)cc1Cl)c1csc(NS(=O)(=O)C2CC2)n1` [T41], the IC50 was in the range of 100 to 1000 nM.

With `COc1cncc(-c2ccc(NC(=O)C(OC)c3csc(NS(=O)(=O)C4CC4)n3)cc2)n1` (centres unmarked) [T57], the IC50 was less than 100 nM.

`CC(C)OC(C(=O)Nc1ccc(-c2cncc(Cl)c2)cc1)c1csc(NS(=O)(=O)C2CC2)n1` (centres unmarked) [T58]: the IC50 is less than 100 nM.

Consider `COCCC(C(=O)Nc1ccc(-c2cncc(C(F)(F)F)n2)cn1)c1csc(NS(=O)(=O)C2CC2)n1` (centres unmarked) [T59], for which the IC50 was less than 100 nM.

`CCC(C(=O)Nc1ccc(-c2ccnnc2)cc1)c1csc(NS(=O)(=O)C2CC2)n1` (centres unmarked) [T69]: the IC50 is 1000 to 10000 nM.

As to `CCC(C(=O)Nc1ccc(-c2cnccn2)cc1)c1csc(NS(=O)(=O)C2CC2)n1` (centres unmarked) [T70], the IC50 lay within 100 to 1000 nM.

With `COCCC(C(=O)Nc1ccc(-c2cncc(Cl)c2)cc1)c1csc(NS(=O)(=O)C2CC2)n1` (centres unmarked) [T71], the IC50 is less than 100 nM.

On to `CCC(C(=O)Nc1ccc(-c2cncc(C(F)(F)F)n2)cc1)c1csc(NS(=O)(=O)C2CC2)n1` (centres unmarked) [T73], for which the IC50 was less than 100 nM.

In the case of `CC(C)C(C(=O)Nc1ccc(-c2cnccn2)cc1)c1csc(NS(=O)(=O)C2CC2)n1` (centres unmarked) [T74], the IC50 lay within 100 to 1000 nM.

For `CCCOc1cncc(-c2ccc(NC(=O)C(CC)c3csc(NS(=O)(=O)C4CC4)n3)cc2)n1` (centres unmarked) [T75], the IC50 was less than 100 nM.

`CCC(C(=O)Nc1ccc(-c2cncc(OC(C)C)n2)cc1)c1csc(NS(=O)(=O)C2CC2)n1` (centres unmarked) [T76]: the IC50 is less than 100 nM.

Turning to `CCC(C(=O)Nc1ccc(-c2cncc(OC3CC3)n2)cc1)c1csc(NS(=O)(=O)C2CC2)n1` (centres unmarked) [T77], the IC50 was less than 100 nM.

Consider `CCC(C(=O)Nc1ccc(-c2cncc(Cl)n2)cc1)c1csc(NS(=O)(=O)C2CC2)n1` (centres unmarked) [T78, N-(4-(6-chloropyrazin-2-yl)phenyl)-2-(2-(cyclopropanesulfonamido)thiazol-4-yl)butanamide], for which the IC50 was less than 100 nM.

Consider `CCC(C(=O)Nc1ccc(-c2cncc(C#N)n2)cc1)c1csc(NS(=O)(=O)C2CC2)n1` (centres unmarked) [T79], for which the IC50 was in the range of 100 to 1000 nM.

Take `O=C(Nc1ccc(-c2ccccc2)cc1)C1CCCc2sc(NS(=O)(=O)C3CC3)nc21` (centres unmarked) [T83]: the IC50 lay in the range of 1000 to 10000 nM.

On to `O=C(Nc1ccc(-c2cccnc2)cc1)C1CCCc2sc(NS(=O)(=O)C3CC3)nc21` (centres unmarked) [T84], for which the IC50 lay in the range of 100 to 1000 nM.

Take `CCC(C(=O)Nc1ccc(-c2ccccc2)cc1)c1csc(NS(=O)(=O)C2CC2)n1` (centres unmarked) [T85]: the IC50 lay in the range of 100 to 1000 nM.

Turning to `CC(C)C(C(=O)Nc1ccc(-c2ccccc2)cc1)c1csc(NS(=O)(=O)C2CC2)n1` (centres unmarked) [T86], the IC50 fell in the range of 1000 to 10000 nM.

On to `CC(C)(C(=O)Nc1ccc(-c2cccc(Cl)c2)cc1)c1csc(NS(=O)(=O)C2CC2)n1` [T87], for which the IC50 lay in the range of 100 to 1000 nM.

In the case of `CC(C)(C(=O)Nc1ccc(-c2cccc(C#N)c2)cc1)c1csc(NS(=O)(=O)C2CC2)n1` [T88], the IC50 was in the range of 100 to 1000 nM.

`O=C(Nc1ccc(-c2cccnc2)cc1)C(F)(F)c1csc(NS(=O)(=O)C2CC2)n1` [T89]: the IC50 was less than 100 nM.

Regarding `CCC(C(=O)Nc1ccc(-c2cncc(F)c2)cc1)c1csc(NS(=O)(=O)C2CC2)n1` (centres unmarked) [T90], the IC50 is less than 100 nM.

For `CCOc1cncc(-c2ccc(NC(=O)C(C)c3csc(NS(=O)(=O)C4CC4)n3)cc2)c1` (centres unmarked) [T94], the IC50 is less than 100 nM.

With `CC(C(=O)Nc1ccc(-c2cncc(Cl)c2)cc1)c1csc(NS(=O)(=O)C2CC2)n1` (centres unmarked) [T95], the IC50 is less than 100 nM.

As to `CCOc1cncc(-c2ccc(NC(=O)C(CC)c3csc(NS(=O)(=O)C4CC4)n3)cc2)c1` (centres unmarked) [T96], the IC50 was less than 100 nM.

`Cc1ncccc1-c1ccc(NC(=O)Cc2csc(NS(=O)(=O)C3CC3)n2)cc1` [T100]: the IC50 was in the range of 100 to 1000 nM.

In the case of `CC(C(=O)Nc1ccc(-c2cccnc2)cc1)c1csc(NS(=O)(=O)C2CC2)n1` (centres unmarked) [T102], the IC50 is less than 100 nM.

`CCC(CC)(C(=O)Nc1ccc(-c2cncc(Cl)c2)cc1)c1csc(NS(=O)(=O)C2CC2)n1` [T120]: the IC50 is less than 100 nM.

As to `CC(C)(C(=O)Nc1ccc(-c2cccnc2)c(Cl)c1)c1csc(NS(=O)(=O)C2CC2)n1` [T153], the IC50 lay within 100 to 1000 nM.

For `CCC(CC)(C(=O)Nc1ccc(-c2cncc(Cl)n2)cc1)c1csc(NS(=O)(=O)C2CC2)n1` [T160], the IC50 is less than 100 nM.

As to `O=C(Nc1ccc(-c2cncc(C(F)(F)F)n2)cn1)C1CCc2sc(NS(=O)(=O)C3CC3)nc21` (centres unmarked) [T169], the IC50 is 100 to 1000 nM.

With `COCCC(C(=O)Nc1ccc(-c2cnccn2)cn1)c1csc(NS(=O)(=O)C2CC2)n1` (centres unmarked) [T170], the IC50 was 100 to 1000 nM.

For `COCCC(C(=O)Nc1ccc(-c2cncc(OC)c2)cn1)c1csc(NS(=O)(=O)C2CC2)n1` (centres unmarked) [T171], the IC50 was less than 100 nM.

Take `CC(C)OC(C(=O)Nc1ccc(-c2cncc(C(F)(F)F)n2)cn1)c1csc(NS(=O)(=O)C2CC2)n1` (centres unmarked) [T172]: the IC50 is less than 100 nM.

With `CCCOc1cncc(-c2ccc(NC(=O)C(CC)c3csc(NS(=O)(=O)C4CC4)n3)nc2)n1` (centres unmarked) [T173], the IC50 was less than 100 nM.

As to `CCC(C(=O)Nc1ccc(-c2cncc(OC(C)C)n2)cn1)c1csc(NS(=O)(=O)C2CC2)n1` (centres unmarked) [T174], the IC50 was less than 100 nM.

Consider `CCC(C(=O)Nc1ccc(-c2cncc(C(F)(F)F)n2)cn1)c1csc(NS(=O)(=O)C2CC2)n1` (centres unmarked) [T175], for which the IC50 is less than 100 nM.

`CCC(C(=O)Nc1ccc(-c2cncc(OC)n2)cn1)c1csc(NS(=O)(=O)C2CC2)n1` (centres unmarked) [T176]: the IC50 was less than 100 nM.

`CCOc1cncc(-c2ccc(NC(=O)C(CC)c3csc(NS(=O)(=O)C4CC4)n3)nc2)n1` (centres unmarked) [T177]: the IC50 was less than 100 nM.
